Assay results as given in article PMC10382351, “In vivo evaluation of a novel ^18F-labeled PET radioligand for translocator protein 18 kDa (TSPO) in monkey brain” (European Journal of Nuclear Medicine and Molecular Imaging, 2023).
“And” between values parts separate entries of the source, which are not always exact repeats. Equal entries are not always repeated. “Also recorded” adds a separate entry of the source.

What was measured:
[1] = system: 18 kDa translocator protein (TSPO); experiment: PET imaging of [^18F]SF51 in rhesus monkey brain with kinetic analysis (2TCM, Logan plot, Lassen plot); type: in vivo; conditions: for Estimated K1: three rhesus monkeys; for VT/fP using Logan plot: n=3
Procedure: Electrocardiogram, body temperature, heart rate, and respiratory rate measures were monitored throughout the scan.
Brain PET imaging was performed using a microPET Focus 220 camera (Siemens Medical Solution; Knoxville, TN). […] For baseline experiments, 20 mL of a vehicle containing 20% (2-hydroxypropyl)-β-cyclodextrin and two equivalents of HCl were injected intravenously 10 min before radioligand administration. For the blocked experiment, PK11195 was dissolved in vehicle and then injected intravenously (5 mg/kg) 10 min before radioligand injection for all three monkeys. One of the three monkeys underwent an additional blocked scan with 5 mg/kg of PBR28, performed using a MultiScan™ LFER 150 PET/CT (Mediso USA, LLC; Arlington, VA). The interval between baseline and blocked imaging sessions was at least three weeks in order to allow the monkey to recover from arterial blood sampling. Focus 220 PET images were histogrammed into 30 time frames (6 × 30, 3 × 60, 2 × 120, 4 × 300, and 15 × 600 s) and reconstructed using Fourier rebinning plus a two-dimensional filtered back-projection with scatter and attenuation correction. MultiScan LFER PET images were reconstructed with 3D-OSEM with two iterations and nine subsets and were corrected for scatter and attenuation.
PET images were co-registered to a standardized monkey MRI template using PMOD software (PMOD version 4.1, PMOD Technologies Ltd.; Zurich, Switzerland). Thirty-three predefined regions of interest (ROIs) from a monkey brain template were applied to the co-registered PET images to obtain regional time-activity curves (Supplementary Table S2). Brain uptake was expressed as standardized uptake value (SUV), which normalizes for injected radioactivity and body weight. Using the brain time-activity curves and the radiometabolite-corrected arterial input function, the total VT was derived from a two-tissue compartment model (2TCM). Receptor occupancy by PK11195 and nondisplaceable distribution volume (VND/fP) of [^18F]SF51 were determined by an axes-transformed Lassen plot, where the y-axis reports the difference in VT between the baseline and the blocked scans, corrected by the respective fp values, and the x-axis reports the values at baseline (VTbase/fPbase).

[2] = Ex vivo radioanalysis of mouse brain and plasma 120 min after injection; type: in vivo, mice
Procedure: An ex vivo experiment was performed in another mouse 120 min after [^18F]SF51 injection. Anticoagulated blood was withdrawn from the myocardium, and the brain was extracted. The harvested brain was weighed and immediately underwent radioanalysis. The plasma was separated by centrifugation, and the radioactivity in both whole blood and plasma was measured as previously described.

## CC[C@@H](C)N(C)C(=O)c1nc(-c2cccc([18F])c2)c2ccccc2n1 [[^18F]SF51]
[1]; Baseline, Amygdala, 2TCM, n = 3
  VT/fP: 242 mL·cm^−3
[1]; Baseline, Amygdala, 2TCM
  Estimated K1: 0.29 mL·cm^-3·min^-1
[1]; Baseline, Amygdala
  VT/fP using Logan plot: 229 mL·cm^-3
[1]; Baseline, Amygdala, one monkey (PBR28 experiment)
  VT/fP: 284 mL·cm^-3
[1]; Baseline, Cerebellum, 2TCM, n = 3
  VT/fP: 179 mL·cm^−3
[1]; Baseline, Cerebellum, 2TCM
  Estimated K1: 0.34 mL·cm^-3·min^-1
[1]; Baseline, Cerebellum
  VT/fP using Logan plot: 172 mL·cm^-3
[1]; Baseline, Cerebellum, one monkey (PBR28 experiment)
  VT/fP: 208 mL·cm^-3
[1]; Baseline, Cingulate Cortex, 2TCM, n = 3
  VT/fP: 218 mL·cm^−3
[1]; Baseline, Cingulate Cortex, 2TCM
  Estimated K1: 0.30 mL·cm^-3·min^-1
[1]; Baseline, Cingulate Cortex
  VT/fP using Logan plot: 208 mL·cm^-3
[1]; Baseline, Cingulate Cortex, one monkey (PBR28 experiment)
  VT/fP: 260 mL·cm^-3
[1]; Baseline, Frontal Cortex, 2TCM, n = 3
  VT/fP: 201 mL·cm^−3
[1]; Baseline, Frontal Cortex, 2TCM
  Estimated K1: 0.30 mL·cm^-3·min^-1
[1]; Baseline, Frontal Cortex
  VT/fP using Logan plot: 192 mL·cm^-3
[1]; Baseline, Frontal Cortex, one monkey (PBR28 experiment)
  VT/fP: 241 mL·cm^-3
[1]; Baseline, Hippocampus, 2TCM, n = 3
  VT/fP: 220 mL·cm^−3
[1]; Baseline, Hippocampus, 2TCM
  Estimated K1: 0.33 mL·cm^-3·min^-1
[1]; Baseline, Hippocampus
  VT/fP using Logan plot: 211 mL·cm^-3
[1]; Baseline, Hippocampus, one monkey (PBR28 experiment)
  VT/fP: 253 mL·cm^-3
[1]; Baseline, Insula, 2TCM, n = 3
  VT/fP: 224 mL·cm^−3
[1]; Baseline, Insula, 2TCM
  Estimated K1: 0.35 mL·cm^-3·min^-1
[1]; Baseline, Insula
  VT/fP using Logan plot: 214 mL·cm^-3
[1]; Baseline, Insula, one monkey (PBR28 experiment)
  VT/fP: 264 mL·cm^-3
[1]; Baseline, Occipital Cortex, 2TCM, n = 3
  VT/fP: 183 mL·cm^−3
[1]; Baseline, Occipital Cortex, 2TCM
  Estimated K1: 0.31 mL·cm^-3·min^-1
[1]; Baseline, Occipital Cortex
  VT/fP using Logan plot: 175 mL·cm^-3
[1]; Baseline, Occipital Cortex, one monkey (PBR28 experiment)
  VT/fP: 217 mL·cm^-3
[1]; Baseline, Parietal Cortex, 2TCM, n = 3
  VT/fP: 202 mL·cm^−3
[1]; Baseline, Parietal Cortex, 2TCM
  Estimated K1: 0.30 mL·cm^-3·min^-1
[1]; Baseline, Parietal Cortex
  VT/fP using Logan plot: 193 mL·cm^-3
[1]; Baseline, Parietal Cortex, one monkey (PBR28 experiment)
  VT/fP: 246 mL·cm^-3
[1]; Baseline, Striatum, 2TCM, n = 3
  VT/fP: 225 mL·cm^−3
[1]; Baseline, Striatum, 2TCM
  Estimated K1: 0.38 mL·cm^-3·min^-1
[1]; Baseline, Striatum
  VT/fP using Logan plot: 215 mL·cm^-3
[1]; Baseline, Striatum, one monkey (PBR28 experiment)
  VT/fP: 266 mL·cm^-3
[1]; Baseline, Temporal Cortex, 2TCM, n = 3
  VT/fP: 209 mL·cm^−3
[1]; Baseline, Temporal Cortex, 2TCM
  Estimated K1: 0.30 mL·cm^-3·min^-1
[1]; Baseline, Temporal Cortex
  VT/fP using Logan plot: 201 mL·cm^-3
[1]; Baseline, Temporal Cortex, one monkey (PBR28 experiment)
  VT/fP: 241 mL·cm^-3
[1]; Baseline, Thalamus, 2TCM, n = 3
  VT/fP: 218 mL·cm^−3
[1]; Baseline, Thalamus, 2TCM
  Estimated K1: 0.35 mL·cm^-3·min^-1
[1]; Baseline, Thalamus
  VT/fP using Logan plot: 208 mL·cm^-3
[1]; Baseline, Thalamus, one monkey (PBR28 experiment)
  VT/fP: 259 mL·cm^-3
[1]; Baseline, Whole Brain, 2TCM, n = 3
  VT/fP: 203 ± 15 mL·cm^−3 and 203 mL·cm^−3
[1]; Baseline, Whole Brain, 2TCM
  Estimated K1: 0.31 mL·cm^-3·min^-1
[1]; Baseline, Whole Brain
  VT/fP using Logan plot: 194 mL·cm^-3
[1]; Baseline, Whole Brain, one monkey (PBR28 experiment)
  VT/fP: 240 mL·cm^-3
[1]; Blocked (PK11195 5 mg/kg i.v.), Amygdala, 2TCM, n = 3
  VT/fP: 23 mL·cm^−3
[1]; Blocked (PK11195 5 mg/kg i.v.), Cerebellum, 2TCM, n = 3
  VT/fP: 26 mL·cm^−3
[1]; Blocked (PK11195 5 mg/kg i.v.), Cingulate Cortex, 2TCM, n = 3
  VT/fP: 25 mL·cm^−3
[1]; Blocked (PK11195 5 mg/kg i.v.), Frontal Cortex, 2TCM, n = 3
  VT/fP: 26 mL·cm^−3
[1]; Blocked (PK11195 5 mg/kg i.v.), Hippocampus, 2TCM, n = 3
  VT/fP: 21 mL·cm^−3
[1]; Blocked (PK11195 5 mg/kg i.v.), Insula, 2TCM, n = 3
  VT/fP: 23 mL·cm^−3
[1]; Blocked (PK11195 5 mg/kg i.v.), Occipital Cortex, 2TCM, n = 3
  VT/fP: 23 mL·cm^−3
[1]; Blocked (PK11195 5 mg/kg i.v.), Parietal Cortex, 2TCM, n = 3
  VT/fP: 24 mL·cm^−3
[1]; Blocked (PK11195 5 mg/kg i.v.), Striatum, 2TCM, n = 3
  VT/fP: 26 mL·cm^−3
[1]; Blocked (PK11195 5 mg/kg i.v.), Temporal Cortex, 2TCM, n = 3
  VT/fP: 22 mL·cm^−3
[1]; Blocked (PK11195 5 mg/kg i.v.), Thalamus, 2TCM, n = 3
  VT/fP: 27 mL·cm^−3
[1]; Blocked (PK11195 5 mg/kg i.v.), Whole Brain, 2TCM, n = 3
  VT/fP: 24 mL·cm^−3
[1]; Blocked (PK11195), Amygdala, 2TCM
  Estimated K1: 0.38 mL·cm^-3·min^-1
[1]; Blocked (PK11195), Amygdala
  VT/fP using Logan plot: 23 mL·cm^-3
[1]; Blocked (PK11195), Cerebellum, 2TCM
  Estimated K1: 0.62 mL·cm^-3·min^-1
[1]; Blocked (PK11195), Cerebellum
  VT/fP using Logan plot: 25 mL·cm^-3
[1]; Blocked (PK11195), Cingulate Cortex, 2TCM
  Estimated K1: 0.34 mL·cm^-3·min^-1
[1]; Blocked (PK11195), Cingulate Cortex
  VT/fP using Logan plot: 24 mL·cm^-3
[1]; Blocked (PK11195), Frontal Cortex, 2TCM
  Estimated K1: 0.36 mL·cm^-3·min^-1
[1]; Blocked (PK11195), Frontal Cortex
  VT/fP using Logan plot: 25 mL·cm^-3
[1]; Blocked (PK11195), Hippocampus, 2TCM
  Estimated K1: 0.48 mL·cm^-3·min^-1
[1]; Blocked (PK11195), Hippocampus
  VT/fP using Logan plot: 21 mL·cm^-3
[1]; Blocked (PK11195), Insula, 2TCM
  Estimated K1: 0.37 mL·cm^-3·min^-1
[1]; Blocked (PK11195), Insula
  VT/fP using Logan plot: 23 mL·cm^-3
[1]; Blocked (PK11195), Occipital Cortex, 2TCM
  Estimated K1: 0.40 mL·cm^-3·min^-1
[1]; Blocked (PK11195), Occipital Cortex
  VT/fP using Logan plot: 22 mL·cm^-3
[1]; Blocked (PK11195), Parietal Cortex, 2TCM
  Estimated K1: 0.35 mL·cm^-3·min^-1
[1]; Blocked (PK11195), Parietal Cortex
  VT/fP using Logan plot: 23 mL·cm^-3
[1]; Blocked (PK11195), Striatum, 2TCM
  Estimated K1: 0.65 mL·cm^-3·min^-1
[1]; Blocked (PK11195), Striatum
  VT/fP using Logan plot: 25 mL·cm^-3
[1]; Blocked (PK11195), Temporal Cortex, 2TCM
  Estimated K1: 0.36 mL·cm^-3·min^-1
[1]; Blocked (PK11195), Temporal Cortex
  VT/fP using Logan plot: 22 mL·cm^-3
[1]; Blocked (PK11195), Thalamus, 2TCM
  Estimated K1: 0.50 mL·cm^-3·min^-1
[1]; Blocked (PK11195), Thalamus
  VT/fP using Logan plot: 26 mL·cm^-3
[1]; Blocked (PK11195), Whole Brain, 2TCM
  Estimated K1: 0.41 mL·cm^-3·min^-1
[1]; Blocked (PK11195), Whole Brain
  VT/fP using Logan plot: 24 mL·cm^-3
[1]; Blocked, PBR28 pre-blockade (5 mg/kg), Amygdala, one monkey
  VT/fP: 9 mL·cm^-3
[1]; Blocked, PBR28 pre-blockade (5 mg/kg), Cerebellum, one monkey
  VT/fP: 10 mL·cm^-3
[1]; Blocked, PBR28 pre-blockade (5 mg/kg), Cingulate Cortex, one monkey
  VT/fP: 10 mL·cm^-3
[1]; Blocked, PBR28 pre-blockade (5 mg/kg), Frontal Cortex, one monkey
  VT/fP: 10 mL·cm^-3
[1]; Blocked, PBR28 pre-blockade (5 mg/kg), Hippocampus, one monkey
  VT/fP: 9 mL·cm^-3
[1]; Blocked, PBR28 pre-blockade (5 mg/kg), Insula, one monkey
  VT/fP: 10 mL·cm^-3
[1]; Blocked, PBR28 pre-blockade (5 mg/kg), Occipital Cortex, one monkey
  VT/fP: 10 mL·cm^-3
[1]; Blocked, PBR28 pre-blockade (5 mg/kg), Parietal Cortex, one monkey
  VT/fP: 10 mL·cm^-3
[1]; Blocked, PBR28 pre-blockade (5 mg/kg), Striatum, one monkey
  VT/fP: 10 mL·cm^-3
[1]; Blocked, PBR28 pre-blockade (5 mg/kg), Temporal Cortex, one monkey
  VT/fP: 9 mL·cm^-3
[1]; Blocked, PBR28 pre-blockade (5 mg/kg), Thalamus, one monkey
  VT/fP: 12 mL·cm^-3
[1]; Blocked, PBR28 pre-blockade (5 mg/kg), Whole Brain, one monkey
  VT/fP: 10 mL·cm^-3
[1]; Lassen plot, monkey brain, n = 3
  VND/fP (x-intercept of the regression lines): 27 ± 11 mL· cm^−3
[1]; all regions, PK11195
  Increase of K1 in blocked scans compared to baseline scans: about 30%
[1]; mean ± SD, n = 3
  x-intercept of Lassen plot (VND/fP): 27 ± 11
[1]; monkey brain, PK11195 5 mg/kg i.v.
  Decrease of VT/fP (binding displaced) after blockade with PK11195: ~ 90%
[1]; monkey brain, after 5 mg/kg PK11195, n = 3
  Mean SUV peak in brain after pre-blockade: 3.0 ± 0.5 SUV
[1]; monkey brain, baseline, at 180 min
  Brain activity relative to the peak: 30 % of the peak
[1]; monkey brain, baseline, by 110 min
  Brain activity relative to the peak: 50 % of the peak
[1]; monkey whole brain, baseline, n = 3
  Peak concentration of brain radioactivity (mean SUV peak): 2.0 SUV and 2.0 ± 0.1 SUV
[1]; monkey, baseline, blocked by PK11195 and PBR28
  Uptake in the skull: No significant uptake; also recorded: low uptake
[1]; monkey, ratio of specific binding to nondisplaceable uptake, n = 3
  BPND of whole brain: 7.6 ± 4.3 and 7.6
[2]
  Parent radioligand as share of radioactivity in plasma: 9.1%
  Parent radioligand as share of radioactivity in the brain: 96% and 96.4%
